Test results published in patent US10035991B2, “Non-transgenic herbicide resistant plants” (priority 1999, dated 2018).

Assays:
[1] = target: wild-type EPSPS from E. coli (Escherichia coli, UniProt P0A6D3); conditions: read-out: apparent Km for PEP; cited from earlier work
[2] = test system: SA4247 Salmonella typhi cells expressing mutant Arabidopsis thaliana EPSPS; experiment: Glyphosate resistance assay (growth by optical density at 600 nm); format: cell-based; conditions: 17 mM or 0 mM glyphosate, liquid M9 medium, OD 600 nm every hour for seven hours, compared to wild-type cells (FIG. 6)
Procedure: Electrocompetent cells of SA4247, a LacZ—Salmonella typhi strain, were prepared according to well known procedures (see Current Protocols in Molecular Biology, (Wiley and Sons, Inc.)). 30 μl of SA4247 competent cells were electroporated with 20 ng of each plasmid DNA encoding Arabidopsis wild-type and mutant EPSPS proteins, Bacillus wild-type EPSPS, along with a mock transfection as a control. The settings for electroporation were 25 μF, 2.5 KV and 200 ohms. After electroporation, the cells were transferred into 15 mls culture tube and supplemented with 970 μl of SOC medium. The cultures were incubated for 1½ hours at 37° C. at 225 rpm. 501 of each culture were plated onto LB plates containing 17 μg/ml chloramphenicol (in duplicates) and incubated overnight at 37° C. On the following day, 5 colonies of each plate were picked and transferred onto M9 plates and incubated overnight at 37° C.
Colonies from the overnight incubation on solid M9 were inoculated into 4 ml of liquid M9 medium and grown overnight at 37° C. On the following day, 25 ml of liquid M9 medium containing chloramphenicol, IPTG and 17 mM or 0 mM Glyphosate (Aldrich, 33775-7) were inoculated with 1-2 mls of each overnight culture (in duplicates), the starting OD (at 600 nm) was measured and all the cultures were normalized to start at the same OD. An OD measurement was taken every hour for seven hours. […]

wild-type EPSPS from E. coli, sequence (P0A6D3 whole entry): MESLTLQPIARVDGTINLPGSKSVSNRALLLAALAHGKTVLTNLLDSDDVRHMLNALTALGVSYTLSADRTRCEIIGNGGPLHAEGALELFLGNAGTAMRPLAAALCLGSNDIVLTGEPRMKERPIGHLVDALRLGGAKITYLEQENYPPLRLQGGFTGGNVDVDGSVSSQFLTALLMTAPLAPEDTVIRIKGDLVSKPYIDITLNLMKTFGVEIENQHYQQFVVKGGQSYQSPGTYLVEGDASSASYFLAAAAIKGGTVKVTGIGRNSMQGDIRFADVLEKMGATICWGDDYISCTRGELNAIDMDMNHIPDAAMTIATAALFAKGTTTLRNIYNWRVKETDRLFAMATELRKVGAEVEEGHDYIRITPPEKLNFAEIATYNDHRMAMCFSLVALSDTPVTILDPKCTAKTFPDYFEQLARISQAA

In the case of `C=C(OP(=O)(O)O)C(=O)O` [PEP, phosphoenolpyruvic acid], the Km [1] is given as 10 µM.

For `O=C(O)CNCP(=O)(O)O` [glyphosate, N-phosphonomethylglycine], the “growth rate of cells containing a mutation in the EPSPS gene” value [2] was “substantially similar growth rate in the absence or presence of glyphosate”.
